Test results taken from patent US10174037B2, “Dihydropyrazolopyrimidinone compounds as PDE2 inhibitors” (Merck Sharp & Dohme Corp., priority 2015, dated 2019).

Assays:
[1] = system: other PDE isoforms; conditions: reported in Brandon et al. 2007; cited from earlier work
[2] = reported in Brandon et al. 2007; cited from earlier work
[3] = molecular target: Rhesus PDE2A3 (Macaca mulatta, UniProt B3VTJ2); assay: PDE2 fluorescence polarization (IMAP FP) assay, rhesus PDE2A3; assay type: biochemical, rhesus macaque; conditions: Lab B, read-out: Rhesus PDE2 Ki (nM) Lab B
[4] = molecular target: human PDE2A1 (Homo sapiens (Human), UniProt O00408); assay: PDE selectivity IMAP FP assay, human PDE2A1; assay type: biochemical; conditions: Human PDE2; Lab B; read-out: Human PDE2 Ki (nM) Lab B
Summary of the method: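 Compound titrations run against PDE2 in Tris HCl pH 7.2 buffer with MgCl2 and DTT for 60 min at room temperature, using 50 nM FAM-cAMP plus 1000 nM cGMP and enzyme giving 20% conversion.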

Sequence of Rhesus PDE2A3 (B3VTJ2 1-941): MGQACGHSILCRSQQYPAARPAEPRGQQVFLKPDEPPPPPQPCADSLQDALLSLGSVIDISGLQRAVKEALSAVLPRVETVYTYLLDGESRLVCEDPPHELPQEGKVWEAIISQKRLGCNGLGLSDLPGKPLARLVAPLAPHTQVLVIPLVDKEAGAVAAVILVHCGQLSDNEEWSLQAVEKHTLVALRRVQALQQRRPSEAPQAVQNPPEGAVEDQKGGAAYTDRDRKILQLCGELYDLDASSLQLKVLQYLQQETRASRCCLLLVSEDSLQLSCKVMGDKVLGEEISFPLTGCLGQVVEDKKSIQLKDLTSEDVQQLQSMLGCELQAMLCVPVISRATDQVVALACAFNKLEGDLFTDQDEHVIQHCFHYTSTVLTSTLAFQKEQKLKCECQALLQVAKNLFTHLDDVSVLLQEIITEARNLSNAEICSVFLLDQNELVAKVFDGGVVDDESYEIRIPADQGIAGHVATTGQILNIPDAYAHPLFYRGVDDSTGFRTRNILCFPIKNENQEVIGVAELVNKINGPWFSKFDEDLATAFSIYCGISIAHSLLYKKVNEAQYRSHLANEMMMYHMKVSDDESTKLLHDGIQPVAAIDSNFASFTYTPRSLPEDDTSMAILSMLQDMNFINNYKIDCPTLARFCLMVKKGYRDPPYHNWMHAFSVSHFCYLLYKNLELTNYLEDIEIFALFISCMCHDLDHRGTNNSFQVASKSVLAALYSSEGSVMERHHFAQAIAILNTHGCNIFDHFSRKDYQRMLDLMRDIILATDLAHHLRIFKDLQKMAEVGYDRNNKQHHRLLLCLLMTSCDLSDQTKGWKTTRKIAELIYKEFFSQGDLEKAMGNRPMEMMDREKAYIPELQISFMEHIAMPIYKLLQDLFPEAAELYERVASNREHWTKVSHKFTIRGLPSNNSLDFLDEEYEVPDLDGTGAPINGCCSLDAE
Sequence of human PDE2A1 (O00408 other isoform, or with tags, fused parts or gaps): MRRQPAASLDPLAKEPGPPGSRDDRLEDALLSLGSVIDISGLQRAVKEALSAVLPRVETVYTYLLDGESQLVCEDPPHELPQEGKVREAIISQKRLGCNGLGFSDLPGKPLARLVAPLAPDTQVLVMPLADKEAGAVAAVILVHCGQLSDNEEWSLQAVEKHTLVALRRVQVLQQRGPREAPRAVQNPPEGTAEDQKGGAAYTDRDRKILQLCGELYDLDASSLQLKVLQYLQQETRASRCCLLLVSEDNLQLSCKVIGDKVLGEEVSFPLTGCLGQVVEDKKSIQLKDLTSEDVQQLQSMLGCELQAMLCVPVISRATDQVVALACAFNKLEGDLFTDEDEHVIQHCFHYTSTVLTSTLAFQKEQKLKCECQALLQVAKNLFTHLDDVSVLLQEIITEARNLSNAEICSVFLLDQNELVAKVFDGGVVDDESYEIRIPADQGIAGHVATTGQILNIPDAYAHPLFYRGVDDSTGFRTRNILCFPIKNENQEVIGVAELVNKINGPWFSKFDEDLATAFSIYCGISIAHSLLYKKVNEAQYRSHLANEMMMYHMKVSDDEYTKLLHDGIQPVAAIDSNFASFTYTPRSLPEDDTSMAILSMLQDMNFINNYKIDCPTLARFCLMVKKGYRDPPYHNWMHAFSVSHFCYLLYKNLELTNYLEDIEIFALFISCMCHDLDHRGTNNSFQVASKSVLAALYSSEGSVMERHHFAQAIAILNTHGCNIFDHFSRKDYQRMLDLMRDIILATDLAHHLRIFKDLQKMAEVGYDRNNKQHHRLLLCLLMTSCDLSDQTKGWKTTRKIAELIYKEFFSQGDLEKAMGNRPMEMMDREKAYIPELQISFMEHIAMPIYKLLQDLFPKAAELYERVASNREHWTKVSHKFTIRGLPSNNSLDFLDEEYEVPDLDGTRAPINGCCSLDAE

| SMILES | Ki [3] [nM] | Ki [4] [nM] | potency at other PDE isoforms [1] | brain penetration [2] |
| --- | --- | --- | --- | --- |
| COc1ccc(Cc2nn3c([C@@H](CCCc4ccccc4)[C@@H](C)O)nc(C)c3c(=O)[nH]2)cc1OC [BAY 60-7550] |  |  | significant potency | limited |
| CCC(c1ccc(C(F)F)cc1)n1nc(CO)c2c(=O)[nH]c(N(C)C)nc21 (single isomer, unassigned) [Example 93, (S)- or (R)-1-(1-(4-(Difluoromethyl)phenyl)propyl)-6-(dimethylamino)-3-(hydroxymethyl)-1H-pyrazolo[3,4-d]pyrimidin-4(5H)-one] | 0.55 | 0.42 |  |  |
| CCC(c1ccc(C(F)(F)F)c(F)c1)n1nc(CO)c2c(=O)[nH]c(N(C)C)nc21 (single isomer, unassigned) [Example 144, (R)- or (S)-6-(Dimethylamino)-1-(1-(3-fluoro-4-(trifluoromethyl)phenyl)propyl)-3-(hydroxymethyl)-1H-pyrazolo[3,4-d]pyrimidin-4(5H)-one] | 3.1 | 1.7 |  |  |
| CC(C)C(c1ccc(C(F)(F)F)cc1)n1nc(CF)c2c(=O)[nH]c(N(C)C)nc21 (single isomer, unassigned) [Example 162] | 0.63 | 0.54 |  |  |

Continued by falling Ki [3], values first:

| Ki [3] [nM] | Ki [4] [nM] | SMILES | potency at other PDE isoforms [1] | brain penetration [2] |
| --- | --- | --- | --- | --- |
| 36 | 37 | CC(C)C(c1ccc(C(F)(F)F)c(F)c1)n1nc(CF)c2c(=O)[nH]c(O)nc21 (single isomer, unassigned) [Example 56] |  |  |
| 1 | 0.68 | CC(c1ccc(OC(F)(F)F)c(F)c1)n1nc(CO)c2c(=O)[nH]c(N(C)C)nc21 (single isomer, unassigned) [Example 84, (R)- or (S)-6-(Dimethylamino)-1-(1-(3-fluoro-4-(trifluoromethoxy)phenyl)ethyl)-3-(hydroxymethyl)-1H-pyrazolo[3,4-d]pyrimidin-4(5H)-one] |  |  |
| 0.42 | 0.41 | CN(C)c1nc2c(c(CF)nn2C(c2ccc(CC(F)(F)F)cc2)C2CC2)c(=O)[nH]1 (single isomer, unassigned) [Example 192, (R)- or (S)-1-(Cyclopropyl(4-(2,2,2-trifluoroethyl)phenyl)methyl)-6-(dimethylamino)-3-(fluoromethyl)-1H-pyrazolo[3,4-d]pyrimidin-4(5H)-one] |  |  |
